Data taken from patent publication US11084808B2, “Oxopicolinamide derivative, preparation method therefor and pharmaceutical use thereof” (Jiangsu Hengrui Medicine Co., Ltd., priority 2016, dated 2021).

Tested on: human blood
Test: In vitro anticoagulant effect on human blood (APTT, CT2)
Format: biochemical
Details: for CT2 (compound concentration doubling APTT): human plasma
Procedure: Test Example 2: Determination of In Vitro Anticoagulant Effect of the Compounds of the Present Invention on Human Blood
1. Experimental Materials
Plasma: Human blood was collected in blood collection tubes containing no anticoagulant, and then 3.8% sodium citrate (volume ratio 1:9) was added. The tubes were centrifuged at 2500 rpm for 10 minutes at room temperature, and then the plasma was collected and stored at −80° C.:
Reagents: APTT reagent (Activated partial thromboplastin time assay kit, SIEMENS, Art. No. B4218-1), calcium chloride solution;
Instrument: Coagulation instrument (SYSMEX, CA-500).
The divided plasma was melted at room temperature and mixed well. 10000 μM the test compound dissolved in 100% DMSO was diluted to 3000, 300, 200, 150, 75, 30, 10, 3, 0.3 μM with 100% DMSO, and the blank was 100% DMSO. The reagent, plasma, and compound were placed in corresponding positions in the coagulation instrument, and APTT detection of the compound was carried out.
Curve fitting was carried out by graphpad and CT2 was calculated, i.e., the concentration of the compound corresponding to 2 times the APTT of the blank control.

[1] = Table 2, concentration of the compound corresponding to 2 times the APTT of the blank control

Compound | CT2 (compound concentration doubling APTT) [1] [µM] | CT2 (compound concentration doubling APTT) (Table 3 comparison with similar compounds in the published patents) [µM] | CT2 value ratio of Example 114 and comparative Example 2 (from Table 3) [times]
COc1cn([C@@H](Cc2ccn(C3CC3)n2)C(=O)Nc2ccc(C(=O)O)cc2)c(=O)cc1-c1cc(Cl)ccc1C(C)=O [Example 94, (S)-4-(2-(4-(2-acetyl-5-chlorophenyl)-5-methoxy-2-oxopyridin-1(2H)-yl)-3-(1-cyclopropyl-1H-pyrazol-3-yl)propanamido)benzoic acid] | 2.2 |  | 
COc1cn(C(Cc2ccn(C3CC3)n2)C(=O)Nc2ccc3nccnc3c2)c(=O)cc1-c1cc(Cl)ccc1C(C)=O (centres unmarked) [Example 96, 2-(4-(2-acetyl-5-chlorophenyl)-5-methoxy-2-oxopyridin-1(2H)-yl)-3-(1-cyclopropyl-1H-pyrazol-3-yl)-N-(quinoxalin-6-yl)propanamide] | 6.7 |  | 
COc1cn(C(Cc2ccn(C3CC3)n2)C(=O)Nc2ccc3nn(C)cc3c2)c(=O)cc1-c1cc(Cl)ccc1C(C)=O (centres unmarked) [Example 97, 2-(4-(2-acetyl-5-chlorophenyl)-5-methoxy-2-oxopyridin-(2H)-yl)-3-(1-cyclopropyl-1H-pyrazol-3-yl)-N-(2-methyl-2H-indazol-5-yl)propanamide] | 5.4 |  | 
COc1cn(C(Cc2ccn(C3CC3)n2)C(=O)Nc2ccc3ncncc3c2)c(=O)cc1-c1cc(Cl)ccc1C(C)=O (centres unmarked) [Example 98, 2-(4-(2-acetyl-5-chlorophenyl)-5-methoxy-2-oxopyridin-1(2H)-yl)-3-(1-cyclopropyl-1H-pyrazol-3-yl)-N-(quinazolin-6-yl)propanamide] | 7.6 |  | 
CCC(=O)c1ccc(Cl)cc1-c1cc(=O)n(C(Cc2ccn(C)n2)C(=O)Nc2ccc(C(=O)O)cc2)cc1OC (centres unmarked) [Example 99, 4-(2-(4-(5-chloro-2-propionylphenyl)-5-methoxy-2-oxopyridin-1(2H)-yl)-3-(1-methyl-1H-pyrazol-3-yl)propanamido)benzoic acid] | 3.5 |  | 
COc1cn(C(Cc2ccn(C)n2)C(=O)Nc2ccc(C(=O)O)cc2)c(=O)cc1-c1cc(Cl)ccc1C(C)=O (centres unmarked) [Example 100, 4-(2-(4-(2-acetyl-5-chlorophenyl)-5-methoxy-2-oxopyridin-(2H)-yl)-3-(1-methyl-1H-pyrazol-3-yl)propanamido)benzoic acid] | 3.3 |  | 
COc1cn([C@H](Cc2cnn(C)c2)C(=O)Nc2ccc(C(=O)O)cc2)c(=O)cc1-c1cc(Cl)ccc1C(C)=O [Example 104, (R)-4-(2-(4-(2-acetyl-5-chlorophenyl)-5-methoxy-2-oxopyridin-1(2H)-yl)-3-(1-methyl-1H-pyrazol-4-yl)propanamido)benzoic acid] | >10000 |  | 
COc1cn([C@@H](Cc2cnn(C)c2)C(=O)Nc2ccc(C(=O)O)cc2)c(=O)cc1-c1cc(Cl)ccc1C(C)=O [Example 105, (S)-4-(2-(4-(2-acetyl-5-chlorophenyl)-5-methoxy-2-oxopyridin-1(2H)-yl)-3-(1-methyl-1H-pyrazol-4-yl)propanamido)benzoic acid] | 6.9 |  | 
CCC(=O)c1ccc(Cl)cc1-c1cc(=O)n([C@@H](CCOC(C)(C)C)C(=O)Nc2ccc(C(=O)O)cc2)cc1OC [Example 108, (S)-4-(4-(tert-butoxy)-2-(4-(5-chloro-2-propionylphenyl)-5-methoxy-2-oxopyridin-1(2H)-yl)butanamido)benzoic acid] | 1.4 |  | 
CCC(=O)c1ccc(Cl)cc1-c1cc(=O)n([C@H](CCOC(C)(C)C)C(=O)Nc2ccc(C(=O)O)cc2)cc1OC [Example 109, (R)-4-(4-(tert-butoxy)-2-(4-(5-chloro-2-propionylphenyl)-5-methoxy-2-oxopyridin-1(2H)-yl)butanamido)benzoic acid] | >10000 |  | 
COc1cn([C@@H](CCOC(C)(C)C)C(=O)Nc2ccc(C(=O)O)cc2)c(=O)cc1-c1cc(Cl)ccc1C(C)=O [Example 111, (S)-4-(2-(4-(2-acetyl-5-chlorophenyl)-5-methoxy-2-oxopyridin-1(2H)-yl)-4-(tert-butoxy)butanamido)benzoic acid] | 3.2 |  | 
COc1cn([C@H](CCOC(C)(C)C)C(=O)Nc2ccc(C(=O)O)cc2)c(=O)cc1-c1cc(Cl)ccc1C(C)=O [Example 112, (R)-4-(2-(4-(2-acetyl-5-chlorophenyl)-5-methoxy-2-oxopyridin-(2H)-yl)-4-(tert-butoxy)butanamido)benzoic acid] | >10000 |  | 
CCC(=O)c1ccc(Cl)cc1-c1cc(=O)n([C@@H](CCOC(C)(C)C)C(=O)Nc2ccc3nccnc3c2)cc1OC [Example 114, (S)-4-(tert-butoxy)-2-(4-(5-chloro-2-propionylphenyl)-5-methoxy-2-oxopyridin-1(2H)-yl)-N-(quinoxalin-6-yl)butanamide] | 3.6 | 2.9 | 4.5
COc1cn([C@H](CC2CCC2)C(=O)Nc2ccc(C(=O)O)cc2)c(=O)cc1-c1c(C(C)=O)ccc(Cl)c1F [Example 160, (R)-4-(2-(4-(6-acetyl-3-chloro-2-fluorophenyl)-5-methoxy-2-oxopyridin-1(2H)-yl)-3-cyclobutylpropanamido)benzoic acid] | 3.8 |  | 
COc1cn([C@H](CCOC2CCC2)C(=O)Nc2ccc(C(=O)O)cc2)c(=O)cc1-c1cc(Cl)ccc1C(C)=O [Example 163, (R)-4-(2-(4-(2-acetyl-5-chlorophenyl)-5-methoxy-2-oxopyridin-1(2H)-yl)-4-cyclobutoxybutanamido)benzoic acid] | >10000 |  | 
COc1cn([C@@H](CCOC2CCC2)C(=O)Nc2ccc(C(=O)O)cc2)c(=O)cc1-c1cc(Cl)ccc1C(C)=O [Example 164, (S)-4-(2-(4-(2-acetyl-5-chlorophenyl)-5-methoxy-2-oxopyridin-1(2H)-yl)-4-cyclobutoxybutanamido)benzoic acid] | 6.4 |  | 
CCC(=O)c1ccc(Cl)cc1-c1cc(=O)n(C(CC2CCCCO2)C(=O)Nc2ccc(C(=O)O)cc2)cc1OC (centres unmarked) [Example 166] | 7.2 |  | 
[2H]C([2H])([2H])Oc1cn([C@@H](CCOC(C)(C)C)C(=O)Nc2ccc(C(=O)O)cc2)c(=O)cc1-c1cc(Cl)ccc1C(=O)CC [Example 177, 4-[[(2S)-4-tert-butoxy-2-[4-(5-chloro-2-propionyl-phenyl)-2-oxo-5-(trideuteromethoxy)-1-pyridyl]butyryl]amino]benzoic acid] | 1.5 |  | 
[2H]C([2H])([2H])Oc1cn([C@H](CCOC(C)(C)C)C(=O)Nc2ccc(C(=O)O)cc2)c(=O)cc1-c1cc(Cl)ccc1C(=O)CC [Example 178, 4-[[(2R)-4-tert-butoxy-2-[4-(5-chloro-2-propionyl-phenyl)-2-oxo-5-(trideuteromethoxy)-1-pyridyl]butyryl]amino]benzoic acid] | >10000 |  | 
[2H]C([2H])([2H])Oc1cn([C@@H](Cc2ccccc2)C(=O)Nc2ccc(C(=O)O)cc2)c(=O)cc1-c1cc(Cl)ccc1C(C)=O [Example 179, 4-[[(2S)-2-[4-(2-acetyl-5-chloro-phenyl)-2-oxo-5-(trideuteromethoxy)-1-pyridyl]-3-phenyl-propionyl]amino]benzoic acid] | 3.3 |  | 
[2H]C([2H])([2H])Oc1cn([C@H](Cc2ccccc2)C(=O)Nc2ccc(C(=O)O)cc2)c(=O)cc1-c1cc(Cl)ccc1C(C)=O [Example 180, 4-[[(2R)-2-[4-(2-acetyl-5-chloro-phenyl)-2-oxo-5-(trideuteromethoxy)-1-pyridyl]-3-phenyl-propionyl]amino]benzoic acid] | >10000 |  | 
[2H]c1c([2H])c([2H])c(C([2H])([2H])[C@@H](C(=O)Nc2ccc(C(=O)O)cc2)n2cc(OC)c(-c3cc(Cl)ccc3C(C)=O)cc2=O)c([2H])c1[2H] [Example 181, 4-[[(2S)-2-[4-(2-acetyl-5-chloro-phenyl)-5-methoxy-2-oxo-1-pyridyl]-3,3-dideutero-3-(2,3,4,5,6-pentadeuterophenyl)propionyl]amino]benzoic acid] | 2.3 |  | 
[2H]C([2H])([2H])C(=O)c1ccc(Cl)cc1-c1cc(=O)n([C@@H](Cc2ccccc2)C(=O)Nc2ccc(C(=O)O)cc2)cc1OC [Example 183, 4-[[(2S)-2-[4-[5-chloro-2-(2,2,2-trideuteroacetyl)phenyl]-5-methoxy-2-oxo-1-pyridyl]-3-phenyl-propionyl]amino]benzoic acid] | 2.6 |  | 
[2H]C([2H])([2H])C(=O)c1ccc(Cl)cc1-c1cc(=O)n([C@H](Cc2ccccc2)C(=O)Nc2ccc(C(=O)O)cc2)cc1OC [Example 184, 4-[[(2R)-2-[4-[5-chloro-2-(2,2,2-trideuteroacetyl)phenyl]-5-methoxy-2-oxo-1-pyridyl]-3-phenyl-propionyl]amino]benzoic acid] | >10000 |  | 
